The source of these data is PMC5623949, “Exploiting the 2-Amino-1,3,4-thiadiazole Scaffold To Inhibit Trypanosoma brucei Pteridine Reductase in Support of Early-Stage Drug Discovery” (ACS Omega, 2017).

Like-named read-outs stand apart in the source and are kept apart here.

Data set [1] addresses T1, hERG (Homo sapiens, UniProt Q12809).
T1 construct: gene KCNH2
The arrangement: hERG channel inhibition. How it is done: (§1) Independent of the effect of any antiparasitic potential of compounds, they were evaluated using a panel of early-toxicity assays comprising cytotoxicity (A549, human lung adenocarcinoma epithelial cell line and WI-38, human lung fibroblasts), mitochondrial toxicity (786-O, human renal carcinoma cell line), hERG inhibition,[31] cytochrome P450 inhibition (CYP1A2, CYP2C9, CYP2C19, CYP2D6, and CYP3A4),[31] and Aurora B kinase inhibition. […] For the two compounds active against TbPTR1 (4m and 4o), IC50 against hERG, cytochrome P450, and mitochondrial toxicity were determined (reported in Supporting Information). We observed that the dose of compounds 4m, 4o, 4c, and 3k was 4 μM in the potentiation assays. […] In the case of hERG, CYP2D6, CYP2A9, CYP2C19, and mitochondrial toxicity, there is a selectivity index of around 3–4 fold, thus showing an acceptable profile.

In data set [2] the test system is 786-O. Kind of data set: cells. The arrangement: mitochondrial toxicity in 786-O cells. The note with it: Homo sapiens, 786-0. How it is done: as §1
Data set [3] addresses T2, CYP2D6 (Homo sapiens, UniProt P10635). Kind of data set: in vitro. The arrangement: cytochrome P450 isoform inhibition. How it is done: as §1
The target in data set [4] is CYP2C9 (Homo sapiens, UniProt P11712). Kind of data set: in vitro. The arrangement: cytochrome P450 isoform inhibition. As for the experimental part:
as §1

Data set [5] has as its target T3, CYP1A2 (Homo sapiens, UniProt P05177).
T3 sequence (P05177 1-516): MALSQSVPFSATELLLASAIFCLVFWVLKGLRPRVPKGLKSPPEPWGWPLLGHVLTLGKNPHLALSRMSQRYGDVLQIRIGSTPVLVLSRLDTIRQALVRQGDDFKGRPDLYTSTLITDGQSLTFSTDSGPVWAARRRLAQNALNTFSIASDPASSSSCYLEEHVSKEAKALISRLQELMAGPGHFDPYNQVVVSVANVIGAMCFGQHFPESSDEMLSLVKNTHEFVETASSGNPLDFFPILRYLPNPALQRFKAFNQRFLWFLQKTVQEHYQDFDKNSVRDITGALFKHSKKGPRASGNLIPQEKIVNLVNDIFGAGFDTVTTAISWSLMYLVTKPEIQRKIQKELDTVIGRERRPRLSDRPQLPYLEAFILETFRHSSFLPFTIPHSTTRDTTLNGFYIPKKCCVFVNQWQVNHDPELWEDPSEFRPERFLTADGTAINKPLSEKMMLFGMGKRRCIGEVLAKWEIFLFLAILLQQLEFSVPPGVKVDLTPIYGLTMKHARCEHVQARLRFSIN
Put plainly: in vitro. Also on record: cytochrome P450 isoform inhibition. How it is done: as §1

Data set [6] deals with CYP2C19 (Homo sapiens, UniProt P33261). Put plainly: in vitro. Also on record: cytochrome P450 isoform inhibition. How it is done: as §1
Chain of CYP2C19 (P33261 whole entry, canonical isoform): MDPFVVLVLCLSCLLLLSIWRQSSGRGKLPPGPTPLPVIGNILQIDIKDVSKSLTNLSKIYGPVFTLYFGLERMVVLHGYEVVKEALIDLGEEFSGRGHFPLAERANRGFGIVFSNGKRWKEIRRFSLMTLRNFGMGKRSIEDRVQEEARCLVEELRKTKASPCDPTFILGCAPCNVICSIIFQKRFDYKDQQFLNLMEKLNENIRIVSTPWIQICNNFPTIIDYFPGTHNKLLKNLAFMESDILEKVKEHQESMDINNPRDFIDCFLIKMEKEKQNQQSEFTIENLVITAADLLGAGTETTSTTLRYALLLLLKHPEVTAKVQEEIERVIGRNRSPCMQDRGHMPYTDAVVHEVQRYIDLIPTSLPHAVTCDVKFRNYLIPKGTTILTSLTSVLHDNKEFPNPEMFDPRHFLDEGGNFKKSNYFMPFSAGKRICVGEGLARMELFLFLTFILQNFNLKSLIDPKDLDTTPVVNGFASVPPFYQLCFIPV
The target in data set [7] is T4, CYP3A4 (Homo sapiens, UniProt P08684). Kind of data set: in vitro. Also on record: cytochrome P450 isoform inhibition. As for the experimental part:
as §1

Data set [8] is described as follows: in vitro. The arrangement: cytotoxicity, per cent cell growth of A549 cells. The note with it: human, a549 cells; read-out: % cell growth A549 at 10uM.
Data set [9] concerns the target T2, CYP2D6. Kind of data set: in vitro. The arrangement: cytochrome P450 isoform inhibition liability assay.
The target in data set [10] is T4, CYP3A4. Put plainly: in vitro. The arrangement: cytochrome P450 isoform inhibition liability assay.
A short description of data set [11]: in vitro. The note with it: human, wi-38 cells; read-out: % cell growth W1-38 at 10uM. Also on record: cytotoxicity, per cent cell growth of WI-38 fibroblasts.
Data set [12] has as its system 786-O. Kind of data set: cells. The arrangement: mitochondrial toxicity in 786-O renal carcinoma cells. The note with it: Homo sapiens, 786-0; read-out: mitochondrial toxicity [IC50 uM].

T2 sequence (P10635 whole entry, canonical isoform): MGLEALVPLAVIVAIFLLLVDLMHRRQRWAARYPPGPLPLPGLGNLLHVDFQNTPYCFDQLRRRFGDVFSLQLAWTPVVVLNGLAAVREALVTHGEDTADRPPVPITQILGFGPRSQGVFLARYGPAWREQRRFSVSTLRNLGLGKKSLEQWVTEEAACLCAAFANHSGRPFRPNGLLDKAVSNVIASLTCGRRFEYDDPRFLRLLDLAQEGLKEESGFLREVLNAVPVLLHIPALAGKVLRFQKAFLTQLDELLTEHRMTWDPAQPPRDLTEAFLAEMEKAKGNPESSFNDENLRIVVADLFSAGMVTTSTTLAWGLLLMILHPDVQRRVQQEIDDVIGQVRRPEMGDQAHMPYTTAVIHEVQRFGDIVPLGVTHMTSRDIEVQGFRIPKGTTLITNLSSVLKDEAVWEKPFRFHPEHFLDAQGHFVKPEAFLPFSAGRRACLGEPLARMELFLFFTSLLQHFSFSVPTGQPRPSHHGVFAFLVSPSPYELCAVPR
T4 sequence (P08684 whole entry, canonical isoform): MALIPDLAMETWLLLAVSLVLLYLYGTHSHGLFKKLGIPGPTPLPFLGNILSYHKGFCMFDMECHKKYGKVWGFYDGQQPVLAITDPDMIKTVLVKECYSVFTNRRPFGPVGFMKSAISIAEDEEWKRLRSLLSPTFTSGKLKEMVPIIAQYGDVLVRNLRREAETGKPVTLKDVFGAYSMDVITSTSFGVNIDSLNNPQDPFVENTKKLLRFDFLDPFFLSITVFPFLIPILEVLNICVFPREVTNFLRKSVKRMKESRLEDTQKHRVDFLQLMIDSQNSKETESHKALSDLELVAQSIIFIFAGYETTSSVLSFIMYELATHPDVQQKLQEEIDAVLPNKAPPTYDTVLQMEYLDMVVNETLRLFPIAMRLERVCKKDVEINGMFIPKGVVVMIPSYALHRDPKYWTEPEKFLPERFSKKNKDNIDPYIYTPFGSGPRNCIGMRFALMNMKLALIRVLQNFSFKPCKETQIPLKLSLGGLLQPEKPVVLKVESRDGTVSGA
Chain of CYP2C9 (P11712 whole entry, canonical isoform): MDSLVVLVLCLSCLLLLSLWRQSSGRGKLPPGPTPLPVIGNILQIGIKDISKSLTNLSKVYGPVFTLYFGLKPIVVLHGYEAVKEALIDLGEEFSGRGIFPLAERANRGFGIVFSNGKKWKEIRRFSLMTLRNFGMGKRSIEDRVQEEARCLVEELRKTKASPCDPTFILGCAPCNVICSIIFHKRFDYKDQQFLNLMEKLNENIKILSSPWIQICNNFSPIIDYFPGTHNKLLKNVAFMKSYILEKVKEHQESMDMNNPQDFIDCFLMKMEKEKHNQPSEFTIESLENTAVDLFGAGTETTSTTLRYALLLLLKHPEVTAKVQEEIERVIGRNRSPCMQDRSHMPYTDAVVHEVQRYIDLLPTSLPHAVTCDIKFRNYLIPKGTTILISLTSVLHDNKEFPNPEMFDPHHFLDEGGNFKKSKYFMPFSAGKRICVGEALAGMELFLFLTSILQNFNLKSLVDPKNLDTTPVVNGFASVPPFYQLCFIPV
T1 sequence (Q12809 whole entry): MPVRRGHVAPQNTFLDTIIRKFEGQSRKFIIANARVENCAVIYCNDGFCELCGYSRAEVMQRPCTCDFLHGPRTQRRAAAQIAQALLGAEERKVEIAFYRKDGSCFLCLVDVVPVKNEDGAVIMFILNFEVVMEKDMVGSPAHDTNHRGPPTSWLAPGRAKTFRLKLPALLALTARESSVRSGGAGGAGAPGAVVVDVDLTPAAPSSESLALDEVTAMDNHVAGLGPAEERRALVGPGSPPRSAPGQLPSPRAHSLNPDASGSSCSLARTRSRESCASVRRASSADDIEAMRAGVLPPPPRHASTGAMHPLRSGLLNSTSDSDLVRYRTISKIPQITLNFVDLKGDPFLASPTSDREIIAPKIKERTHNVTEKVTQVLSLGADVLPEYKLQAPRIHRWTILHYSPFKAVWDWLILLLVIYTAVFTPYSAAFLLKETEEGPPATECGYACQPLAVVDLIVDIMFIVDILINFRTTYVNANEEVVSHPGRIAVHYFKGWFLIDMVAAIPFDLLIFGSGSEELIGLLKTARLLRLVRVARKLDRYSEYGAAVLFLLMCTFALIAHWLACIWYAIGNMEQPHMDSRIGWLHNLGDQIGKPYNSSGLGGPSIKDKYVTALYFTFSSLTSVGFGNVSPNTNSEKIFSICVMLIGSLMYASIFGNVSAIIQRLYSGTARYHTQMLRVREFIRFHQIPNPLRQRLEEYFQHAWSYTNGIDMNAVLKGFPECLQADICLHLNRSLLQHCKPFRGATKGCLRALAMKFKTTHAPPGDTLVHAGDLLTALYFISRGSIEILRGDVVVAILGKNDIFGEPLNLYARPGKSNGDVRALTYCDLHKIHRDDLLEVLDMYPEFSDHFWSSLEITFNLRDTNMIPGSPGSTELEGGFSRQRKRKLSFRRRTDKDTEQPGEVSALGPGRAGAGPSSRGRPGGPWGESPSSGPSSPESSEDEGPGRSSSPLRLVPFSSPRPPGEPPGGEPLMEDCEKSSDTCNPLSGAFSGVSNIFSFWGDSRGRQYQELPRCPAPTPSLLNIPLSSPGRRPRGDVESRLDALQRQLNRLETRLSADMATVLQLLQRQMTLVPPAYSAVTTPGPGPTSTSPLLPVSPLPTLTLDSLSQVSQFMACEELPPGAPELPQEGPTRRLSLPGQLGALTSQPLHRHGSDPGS

A word on the inhibition: it is the relative decrease from the control value, in per cent. A word on the IC50: it is the concentration at which inhibition is half-maximal. Consider `Nc1nnc(NCCc2cccs2)s1` [4o, N2G(2G(thiophenG2Gyl)ethyl)G1,3,4GthiadiazoleG2,5Gdiamine], for which the inhibition at 10 µM is 95.4 ± 8% in data set [1]; 0.5 ± 4.8% in data set [2]; 81.2 ± 1.2% in [3]; 3.1 ± 4.8% in data set [4]; -2.9 ± 3.4% in [5]; -20.9 ± 6.1% in data set [6]. Further, the inhibition at 10 µM in data set [7] was 30.4 ± 4.5%. Besides, the viability at 10 µM was 105 ± 11.4% in [8] and 96.7 ± 13.5% in data set [11]. Moreover, the values for the IC50 in data set [9], in data set [10] and in data set [12] were 12.4 µM, 34.4 µM and 17.8 µM, respectively.
Consider `Nc1nnc(NCc2ccc(-c3ccccc3)cc2)s1` [4m], for which the inhibition at 10 µM in data set [1] is 52.6 ± 11.6%; in data set [2] it was -2.5 ± 6.1%; in [3] it was 53.6 ± 0.6%; in data set [4], 46.9 ± 4.4%; in data set [5], 60.4 ± 4.5%; in [6] it was 22.5 ± 4.7%. Also, the inhibition at 10 µM in data set [7] amounted to 25.6 ± 6.3%. Moreover, the values for the viability at 10 µM in data set [8] and in data set [11] were 112 ± 9.5% and 95.9 ± 18.6%, respectively. Moreover, the half-maximal inhibitory concentration (IC50) was 11.5 µM in data set [9], 12.1 µM in [10] and over 100 µM in [12].
